Laboratory results published in patent US11933794B2, “Method for determining factor Xa inhibitor dosage” (Good Biomarker Sciences B.V., priority 2017, dated 2024).

How the values were obtained:
[1] = system: fibrin clot formation in blood plasma; experiment: Clot growth rate assay (Thrombodynamics) in plasma samples with defined Factor VIII levels; format: biochemical, human; details: for inhibition of clot growth rate: FIG. 1
Source text: (§1) The clot growth rate assay monitors over time fibrin clot development in a nonstirred thin layer of platelet-free plasma activated by immobilized tissue factor. For this, the Thrombodynamics Basic Kit can be used as an in vitro diagnostic kit used to perform measurements of spatiotemporal dynamics of fibrin clot formation in blood plasma samples. The kit consists of measurement cuvettes, activating inserts and reagents for samples treatment. The kit is obtainable from HemaCore intended for professional use in the laboratory on the Thrombodynamics Analyzer T-2. See, for further details, Soshitova et al. (Blood Coagul. Fibrinolysis, 2012 September; 23(6):498-507).
Five plasma samples were prepared containing 50%, 75%, 100%, 150%, or 200% Factor VIII, respectively. The samples were prepared using FVIII-deficient plasma, normal plasma from healthy subjects, and FVIII concentrate and Factor VIII levels were measured and confirmed by the one-stage clotting assay. Each of these five plasma samples was subdivided into five subsamples to which apixaban was added to a total concentration of 0 μM, 0.1 μM, 0.2 μM, 0.35 μM, or 0.5 μM in plasma, respectively. The 25 subsamples were subjected to a clot growth assay as described above, and the clot growth rate was measured at 2500 seconds after start of growth.
For each different Factor VIII concentration (i.e., 50%, 75%, 100%, 150% or 200%), five bars are shown representing subsamples to which apixaban was added to a different total concentration, i.e., 0 μM, 0.1 μM, 0.2 μM, 0.35 μM, or […], respectively.

[2] = system: clot growth in hemophilia plasma (deficient in Factor IX and Factor VIII); experiment: Clot growth experiments comparing normal and hemophilia plasma; format: biochemical, human; details: hemophilia plasmas; in contrast to what was found in normal plasma
Source text: For clot growth, this now appears the key mechanism. In contrast, in text books, activation of Factor VIII is indicated to be a thrombin action.
as §1

coagulation status = experiment: Coagulation status of patients by routine coagulation test (activated partial thromboplastin time, APTT); format: in vivo, human
Experimental: Four subjects in need of […] are selected, including three patients with thrombosis, and one patient with coronary artery disease.
Coagulation status of patients 1-4 is determined by a routine coagulation test (activated partial thromboplastin time, APTT).

| SMILES | effects in the clot growth rate assay compared with apixaban ([1]; FIG. 2) | inhibition of clot growth [2] | coagulation status (APTT): risk of blood clotting or bleeding events (coagulation status; Patient 2 (thrombosis), Factor VIII 95% of standard plasma, 20 mg per day) | inhibition of clot growth rate ([1]; Factor VIII level below 100%, lowest apixaban concentration (0.1 μM in plasma)) | inhibition of clot growth rate ([1]; Factor VIII levels above 100%, 0.1 μM apixaban) | inhibition of clot growth rate ([1]; Factor VIII levels above 100%, 0.35 μM apixaban in plasma) | coagulation status (APTT): risk of blood clotting or bleeding events (coagulation status; Patient 1 (thrombosis), Factor VIII 80% of standard plasma, 5 mg per day) | coagulation status (APTT): risk of blood clotting or bleeding events (coagulation status; Patient 4 (coronary artery disease), Factor VIII 240% of standard plasma, 5 mg per day) |
| --- | --- | --- | --- | --- | --- | --- | --- | --- |
| O=C(NC[C@H]1CN(c2ccc(N3CCOCC3=O)cc2)C(=O)O1)c1ccc(Cl)s1 [rivaroxaban] | closely mimic the effects of apixaban | did not inhibit clot growth | – | – | – | – | – | – |
| CN1CCc2nc(C(=O)N[C@@H]3C[C@@H](C(=O)N(C)C)CC[C@@H]3NC(=O)C(=O)Nc3ccc(Cl)cn3)sc2C1 [edoxaban] | – | – | increased risk of bleeding events | – | – | – | – | – |
| COc1ccc(-n2nc(C(N)=O)c3c2C(=O)N(c2ccc(N4CCCCC4=O)cc2)CC3)cc1 [apixaban] | – | did not inhibit clot growth | – | close to maximal inhibition | not be very effective | substantial inhibition | no increased risk of blood clotting or bleeding events | increased risk of blood clotting events |
